Data as given in patent publication US11713309B2, “Solid forms of Cerdulatinib” (Alexion Pharmaceuticals, Inc., priority 2018, dated 2023).
Structures can show the parent of a compound that is named as a salt. Where two headings read alike, the source gives them in different places.

What was measured:
Type in all cases: physicochemical
[1] = Further solubility testing of Compound I HCl Form I in solvents
[2] = Kinetic solubility in water; conditions: 37° C., listed as HC1 salt Form I; for pH of supernatant: water (native pH 7.6); for Kinetic solubility: water
[3] = Kinetic solubility in FaSSIF; conditions: listed as HC1 salt Form I
[4] = Overall solid form comparison (summary statements)
Excerpt: The hydration behavior of Compound I HCl Form I is reversible, such that rehydration of Compound I HCl Form I returns the single, crystalline form, allowing Compound I HCl Form I be stored at ambient conditions without desiccant.

[5] = Approximate kinetic solubility in pharmaceutical co-solvents; conditions: aqueous with cosolvent or surfactant or cyclodextrin, thermodynamic from solid, no-pH adjustment
Excerpt: A summary of the approximate kinetic solubility of Compound I HCl Form I in organic solvents, simulated biological fluids, and common pharmaceutical co-solvents is provided in Tables 8-10, respectively.

[6] = XRPD form evaluation of materials recovered after solubility analysis; conditions: aqueous solubility analysis, second scale up material
Description: The solubility of the salts/co-crystals of Compound I prepared from the second scale up process was analyzed. The materials recovered after the solubility analysis were evaluated by XRPD to observe any form changes.

[7] = 2% Captisol in aqueous solution
[8] = 5% Captisol in aqueous solution
[9] = 5% Pharmasolve in aqueous solution
[10] = 5% Poloxamer F68 in aqueous solution
[11] = 10% Captisol in aqueous solution
[12] = 10% HP-β-CD in aqueous solution
[13] = 10% Labrasol in aqueous solution
[14] = 10% Pharmasolve in aqueous solution
[15] = 10% Poloxamer F68 in aqueous solution
[16] = 20% HP-β-CD in aqueous solution
[17] = 20% Labrasol in aqueous solution
[18] = 30% HP-β-CD in aqueous solution
[19] = 35% Labrasol in aqueous solution
[20] = 40% Captisol in aqueous solution
[21] = 40% HP-β-CD in aqueous solution
[22] = 50% Labrasol in aqueous solution

CCS(=O)(=O)N1CCN(c2ccc(Nc3ncc(C(N)=O)c(NC4CC4)n3)cc2)CC1 [Compound I HCl Form I, 4-(cyclopropylamino)-2-(4-(4-(ethylsulfonyl)piperazin-1-yl)phenylamino)pyrimidine-5-carboxamide] showed a solubility ([1]; 1,4-dioxane, organic solvent or mixture) of under 2100 µg/mL, a solubility ([1]; 2-MeTHF, organic solvent or mixture) of under 2100 µg/mL and a solubility ([1]; ACN, organic solvent or mixture) of under 2200 µg/mL. For the same molecule, the solubility ([1]; ACN/H2O, 4:1 (v/v), organic solvent or mixture) was 2900 to 3800 µg/mL, the solubility ([1]; Acetone/H2O, 4:1 (v/v), organic solvent or mixture) was under 1900 µg/mL and the solubility ([1]; CHCl3, organic solvent or mixture) was under 2300 µg/mL. For the same molecule, the solubility ([1]; CPME, organic solvent or mixture) was under 2000 µg/mL, the solubility ([1]; DCM, organic solvent or mixture) was under 2100 µg/mL and the solubility ([1]; DMSO, organic solvent or mixture) was over 36000 µg/mL. For the same molecule, the solubility ([1]; EtOAc, organic solvent or mixture) was under 2000 µg/mL, the solubility ([1]; EtOH, organic solvent or mixture) was under 2200 µg/mL and the solubility ([1]; EtOH/H2O, 4:1 (v/v), organic solvent or mixture) was under 2000 µg/mL. The solubility ([1]; IPA, organic solvent or mixture) was under 1900 µg/mL, the solubility ([1]; IPAc, organic solvent or mixture) was under 2300 µg/mL and the solubility ([1]; MIBK, organic solvent or mixture) was under 2300 µg/mL. It also gave a solubility ([1]; MTBE, organic solvent or mixture) of under 2000 µg/mL, a solubility ([1]; MeOH, organic solvent or mixture) of 1900 to 6300 µg/mL and a solubility ([1]; MeOH/DCM, 1:1 (v/v), organic solvent or mixture) of 6800 to 12500 µg/mL. It also gave a solubility ([1]; MeOH/H2O, 4:1 (v/v), organic solvent or mixture) of under 2000 µg/mL, a solubility ([1]; NMP, organic solvent or mixture) of 4000 to 6700 µg/mL and a solubility ([1]; THF, organic solvent or mixture) of under 1900 µg/mL. The solubility ([1]; THF/H2O, 4:1 (v/v), organic solvent or mixture) was 2000 to 2500 µg/mL, the solubility ([1]; acetone, organic solvent or mixture) was under 2200 µg/mL and the solubility ([1]; anisole, organic solvent or mixture) was under 2300 µg/mL. For the same molecule, the solubility ([1]; n-heptane, organic solvent or mixture) was under 1900 µg/mL, the solubility ([1]; toluene, organic solvent or mixture) was under 2100 µg/mL and the pH of supernatant ([2]; 1 h) was 3.1. It also gave a pH of supernatant ([2]; 2 h) of 2.9, a pH of supernatant ([2]; 4 h) of 3.0 and a pH of supernatant ([2]; 24 h) of 2.9. It also gave a Kinetic solubility ([2]; 1 h) of 220 µg/mL, a Kinetic solubility ([2]; 2 h) of 250 µg/mL and a Kinetic solubility ([2]; 4 h) of 180 µg/mL. For the same molecule, the Kinetic solubility ([2]; 24 h) was 180 µg/mL, the “Solubility (mg/mL) 1 h” value ([3]; FaSSIF, 37° C., 1 h, drug loading ~10 mg/mL as freebase) was 0.012 mg/mL and the “Solubility (mg/mL) 2 h” value ([3]; FaSSIF, 37° C., 2 h) was 0.013 mg/mL. The “Solubility (mg/mL) 4 h” value ([3]; FaSSIF, 37° C., 4 h) was 0.013 mg/mL, the “Solubility (mg/mL) 24 h” value ([3]; FaSSIF, 37° C., 24 h) was 0.011 mg/mL and the “pH 1 h” value ([3]; supernatant, FaSSIF (native pH 6.5), 1 h) was 5.4. The “pH 2 h” value ([3]; supernatant, FaSSIF (native pH 6.5), 2 h) was 5.1, the “pH 4 h” value ([3]; supernatant, FaSSIF (native pH 6.5), 4 h) was 5.2 and the “pH 24 h” value ([3]; supernatant, FaSSIF (native pH 6.5), 24 h) was 4.6. The “Stability relative to the other solid forms / salts of Compound I” value [4] was “most physico-chemically stable solid form”, the “Stability relative to the other solid forms / salts of Compound I” value ([4]; listed as Compound I mono-HCl Form I) was “superior thermodynamically stability” and the “Stability of the solid form” value ([4]; room temperature, ambient conditions) was “stable”. For the same molecule, the solubility kinetic at 2 h [5, 7] was 2040 µg/mL, the solubility kinetic at 24 h [5, 7] was 2510 µg/mL and the solubility kinetic at 7 days [5, 7] was 2540 µg/mL. The solubility kinetic at 2 h ([5]; 3% HP-β-CD in aqueous solution) was 990 µg/mL, the solubility kinetic at 24 h ([5]; 3% HP-β-CD in aqueous solution) was 1120 µg/mL and the solubility kinetic at 7 days ([5]; 3% HP-β-CD in aqueous solution) was 1020 µg/mL. It also gave a solubility kinetic at 2 h ([5]; 3% TPGS in aqueous solution) of 1060 µg/mL, a solubility kinetic at 24 h ([5]; 3% TPGS in aqueous solution) of 640 µg/mL and a solubility kinetic at 7 days ([5]; 3% TPGS in aqueous solution) of 540 µg/mL. The solubility kinetic at 2 h [5, 8] was 3010 µg/mL, the solubility kinetic at 24 h [5, 8] was 3610 µg/mL and the solubility kinetic at 7 days [5, 8] was 3750 µg/mL. The solubility kinetic at 2 h ([5]; 5% HP-β-CD in aqueous solution) was 1450 µg/mL, the solubility kinetic at 24 h ([5]; 5% HP-β-CD in aqueous solution) was 1390 µg/mL and the solubility kinetic at 7 days ([5]; 5% HP-β-CD in aqueous solution) was 1590 µg/mL. The solubility kinetic at 2 h [5, 9] was 430 µg/mL, the solubility kinetic at 24 h [5, 9] was 690 µg/mL and the solubility kinetic at 2 h [5, 10] was 230 µg/mL. The solubility kinetic at 24 h [5, 10] was 180 µg/mL, the solubility kinetic at 2 h ([5]; 5% TPGS in aqueous solution) was 1610 µg/mL and the solubility kinetic at 24 h ([5]; 5% TPGS in aqueous solution) was 1530 µg/mL. For the same molecule, the solubility kinetic at 7 days ([5]; 5% TPGS in aqueous solution) was 1320 µg/mL, the solubility kinetic at 2 h [5, 11] was 3040 µg/mL and the solubility kinetic at 24 h [5, 11] was 3410 µg/mL. For the same molecule, the solubility kinetic at 7 days [5, 11] was 3670 µg/mL, the solubility kinetic at 2 h [5, 12] was 1880 µg/mL and the solubility kinetic at 24 h [5, 12] was 2030 µg/mL. It also gave a solubility kinetic at 7 days [5, 12] of 1930 µg/mL, a solubility kinetic at 2 h [5, 13] of 1150 µg/mL and a solubility kinetic at 24 h [5, 13] of 820 µg/mL. For the same molecule, the solubility kinetic at 7 days [5, 13] was 700 µg/mL, the solubility kinetic at 2 h [5, 14] was 700 µg/mL and the solubility kinetic at 24 h [5, 14] was 570 µg/mL. It also gave a solubility kinetic at 2 h [5, 15] of 260 µg/mL, a solubility kinetic at 24 h [5, 15] of 210 µg/mL and a solubility kinetic at 2 h ([5]; 10% TPGS in aqueous solution) of 1800 µg/mL. The solubility kinetic at 24 h ([5]; 10% TPGS in aqueous solution) was 1930 µg/mL, the solubility kinetic at 7 days ([5]; 10% TPGS in aqueous solution) was 1720 µg/mL and the solubility kinetic at 2 h [5, 16] was 2630 µg/mL. It also gave a solubility kinetic at 24 h [5, 16] of 2810 µg/mL, a solubility kinetic at 7 days [5, 16] of 2650 µg/mL and a solubility kinetic at 2 h [5, 17] of 1840 µg/mL. The solubility kinetic at 24 h [5, 17] was 1850 µg/mL, the solubility kinetic at 7 days [5, 17] was 1710 µg/mL and the solubility kinetic at 2 h ([5]; 20% PEG in aqueous solution) was 270 µg/mL. It also gave a solubility kinetic at 24 h ([5]; 20% PEG in aqueous solution) of 370 µg/mL, a solubility kinetic at 2 h ([5]; 20% TPGS in aqueous solution) of 2450 µg/mL and a solubility kinetic at 24 h ([5]; 20% TPGS in aqueous solution) of 2420 µg/mL. The solubility kinetic at 7 days ([5]; 20% TPGS in aqueous solution) was 2620 µg/mL, the solubility kinetic at 2 h [5, 18] was 2980 µg/mL and the solubility kinetic at 24 h [5, 18] was 2940 µg/mL. It also gave a solubility kinetic at 2 h ([5]; 30% PEG in aqueous solution) of 420 µg/mL, a solubility kinetic at 24 h ([5]; 30% PEG in aqueous solution) of 450 µg/mL and a solubility kinetic at 7 days ([5]; 30% PEG in aqueous solution) of 410 µg/mL. For the same molecule, the solubility kinetic at 2 h [5, 19] was 1900 µg/mL, the solubility kinetic at 24 h [5, 19] was 2010 µg/mL and the solubility kinetic at 7 days [5, 19] was 1800 µg/mL. The solubility kinetic at 2 h [5, 20] was 4250 µg/mL, the solubility kinetic at 24 h [5, 20] was 4400 µg/mL and the solubility kinetic at 7 days [5, 20] was 4330 µg/mL. For the same molecule, the solubility kinetic at 2 h [5, 21] was 3860 µg/mL, the solubility kinetic at 24 h [5, 21] was 3840 µg/mL and the solubility kinetic at 7 days [5, 21] was 4120 µg/mL. The solubility kinetic at 2 h [5, 22] was 2050 µg/mL, the solubility kinetic at 24 h [5, 22] was 2650 µg/mL and the solubility kinetic at 7 days [5, 22] was 2200 µg/mL. It also gave a solubility kinetic at 2 h ([5]; 50% PEG in aqueous solution) of 2170 µg/mL, a solubility kinetic at 24 h ([5]; 50% PEG in aqueous solution) of 870 µg/mL and a solubility kinetic at 7 days ([5]; 50% PEG in aqueous solution) of 690 µg/mL. For the same molecule, the “Form change on solubility analysis (XRPD post vs pre)” value [6] was “no form change”.
